From ChEMBL document CHEMBL1124830, “Synthesis, brain uptake, and pharmacological properties of a glyceryl lipid containing GABA and the GABA-T inhibitor gamma-vinyl-GABA” (J Med Chem, 1990)

Assays:
[1] = organism: Mus musculus; details: 3-39 mg/kg
[2] = Brain penetration index calculated as ([Brain]/[Liver])x100 @ 5 min after sc administration in mice at 3-39 mg/kg; assay type: functional
[3] = Partition coefficient of the compound; assay type: ADME; details: octanol/water
[4] = organism: Mus musculus; details: Liver
[5] = organism: Rattus norvegicus; assay: Inhibitory concentration that suppress the CA1 population spike in rat hippocampus slices; assay type: functional, organism-based
[6] = system: Mus musculus; assay: Concentration of liver in mice after sc administration at 33 mg/kg; assay type: functional, organism-based; parameters: dose 33 mg/kg
[7] = organism: Mus musculus; assay: Dose required to produce a 50% reduction in general motor activity after injection in mice; assay type: functional
[8] = system: Mus musculus; assay: Concentration of brain in mice after sc administration at 33 mg/kg; assay type: functional, organism-based; parameters: dose 33 mg/kg
[9] = Brain penetration index calculated as ([Brain]/[Liver])x100 @ 5 min after sc administration in mice at 33 mg/kg; assay type: functional; details: route subcutaneous

Partition coefficient [3]	IC50 [5]	Compound	Concentration (nM (g of tissue)-1) [1]	BPI [2]	Concentration (nM (g of tissue)-1) [4]	Concentration (nM (g of tissue)-1) [6]	Dose [7]	Concentration (nM (g of tissue)-1) [8]	BPI [9]
0.004	–	NCCCC(=O)O [GAMMA-AMINOBUTYRIC ACID]	0.04	1	4.17	–	–	–	–
1.76	800 µM	C=CC(N)CCC(=O)OCC(COC(=O)CCCCCCC/C=C\C/C=C\C/C=C\CC)OC(=O)CCCN (stereo unspecified)	–	–	–	8.94	25 µM/kg	8.34	97
–	–	C=CC(N)CCC(=O)O (stereo unspecified) [VIGABATRIN]	–	–	–	–	9000 µM/kg	–	–
